The results in this text go back to article PMC8491401, “Phytochemical analysis, antioxidant and in vitro β-galactosidase inhibition activities of Juniperus phoenicea and Calicotome villosa methanolic extracts” (BMC Chemistry, 2021).

The IC50 is the concentration at which inhibition is half-maximal. Lower therefore signals greater potency in that assay. In general, Km refers to the concentration of substrate that gives half-maximal velocity.

In data set [1] the target is T1, β-Galactosidase from Aspergillus oryzae (Aspergillus oryzae, UniProt Q2UCU3).
T1 construct: gene lacA; commercial enzyme from Sigma-Aldrich, secreted fungal enzyme; construct details not given
T1 sequence (Q2UCU3 19-1005): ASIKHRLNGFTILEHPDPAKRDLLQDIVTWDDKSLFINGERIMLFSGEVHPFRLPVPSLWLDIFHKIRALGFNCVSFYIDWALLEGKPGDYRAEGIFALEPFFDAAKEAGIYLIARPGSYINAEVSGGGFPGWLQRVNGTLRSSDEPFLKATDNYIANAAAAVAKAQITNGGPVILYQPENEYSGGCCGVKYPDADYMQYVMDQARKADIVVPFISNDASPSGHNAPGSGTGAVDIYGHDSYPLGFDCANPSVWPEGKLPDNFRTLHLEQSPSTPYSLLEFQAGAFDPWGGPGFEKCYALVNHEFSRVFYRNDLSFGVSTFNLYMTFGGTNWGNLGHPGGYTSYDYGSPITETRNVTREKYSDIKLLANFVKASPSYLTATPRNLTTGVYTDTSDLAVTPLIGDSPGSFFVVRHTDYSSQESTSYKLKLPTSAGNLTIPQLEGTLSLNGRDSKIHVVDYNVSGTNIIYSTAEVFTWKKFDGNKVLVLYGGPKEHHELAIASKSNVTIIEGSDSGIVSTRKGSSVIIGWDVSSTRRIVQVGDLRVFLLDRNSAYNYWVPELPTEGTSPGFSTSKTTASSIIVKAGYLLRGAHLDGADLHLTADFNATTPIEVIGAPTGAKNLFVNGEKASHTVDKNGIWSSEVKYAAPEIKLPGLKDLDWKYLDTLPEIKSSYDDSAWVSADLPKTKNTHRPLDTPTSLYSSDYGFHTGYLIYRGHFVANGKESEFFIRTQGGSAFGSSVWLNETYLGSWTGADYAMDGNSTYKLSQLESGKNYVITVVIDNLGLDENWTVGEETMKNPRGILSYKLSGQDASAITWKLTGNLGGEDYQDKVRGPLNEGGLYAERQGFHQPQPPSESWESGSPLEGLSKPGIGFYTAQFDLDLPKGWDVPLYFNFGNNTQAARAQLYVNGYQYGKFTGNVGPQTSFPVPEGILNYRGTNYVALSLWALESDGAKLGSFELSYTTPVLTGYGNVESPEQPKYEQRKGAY
The data set is described as follows: ONPG hydrolysis, absorbance at […] nm. Format: biochemical.

Data set [2] concerns the target T1, β-Galactosidase from Aspergillus oryzae. As to the kind of experiment: Lineweaver-Burk, ONPG hydrolysis. Format: biochemical. To be noted: pH 4.5, 30 °C, mixed, read-out: Ki (mg/ml) (converted). From the text:
Lineweaver-Burk, ONPG hydrolysis on β-Galactosidase from Aspergillus oryzae

Substrate in data set [3]: O=[N+]([O-])c1ccccc1O[C@@H]1O[C@H](CO)[C@H](O)[C@H](O)[C@H]1O
The data set is described as follows: Lineweaver-Burk, ONPG hydrolysis. Format: biochemical, Aspergillus oryzae. The settings on record: pH 4.5, 30 °C, no inhibitor. From the text:
Lineweaver-Burk, ONPG hydrolysis on β-Galactosidase from Aspergillus oryzae | Km and Vmax were obtained by a typical double reciprocal Lineweaver Burk plot

Like-named read-outs stand apart in the source and are kept apart here.

Take `C[C@@H]1O[C@@H](OC[C@H]2O[C@@H](Oc3c(-c4ccc(O)c(O)c4)oc4cc(O)cc(O)c4c3=O)[C@H](O)[C@@H](O)[C@@H]2O)[C@H](O)[C@H](O)[C@H]1O` [Rutin]: the IC50 in data set [1] is 0.123 mM.

On to `OC[C@H]1OC(O)[C@H](O)[C@@H](O)[C@H]1O` (stereo partly shown) [Galactose], for which, in data set [1] (ONPG 20 µmol in 4 ml, 0.1 M citrate-phosphate pH 4.5, 30 °C, mixed), the IC50 is 3.33 mM. The Ki in data set [2] is 10.4 mM.

B1: β-Galactosidase from Aspergillus oryzae (Aspergillus oryzae RIB40) (protein)
chain: T1 sequence (Q2UCU3 19-1005)
notes: commercial enzyme from Sigma-Aldrich, secreted fungal enzyme; construct details not given
On to B1, for which, in data set [3], the Michaelis constant (Km) stood at 1.310 ± 0.091 mM.
